# Read-outs that look alike come from different tables or passages of the source. Marks after values point to notes of the source that are not given here.
# Key:
# human plasma [1] = settings: cited from earlier work; for reported Fub based on RED: human plasma, ref Wetmore et al.
# pooled human plasma [2] = test: Rapid Equilibrium Dialysis; format: in vitro ADME; settings: 10 μM, 37 °C, 4 hours, 8K MWCO membrane
# [3] = format: in vitro ADME; settings: RED with PBS in both chambers, 10 μM, 4 hours, 8K MWCO
# human plasma [4] = settings: ref Musteata et al., 2006; cited from earlier work
# pooled human plasma [5] = test: Solid Phase Micro-Extraction; format: in vitro ADME; settings: 10 μM, room temperature, C18 fibers
# [6] = ref Wetmore, 2015, Wetmore et al., 2012
smiles,measurement,setting,value
c1cc2c3c(cccc3c1)CC2 [Acenaphthene],Literature % unbound (equilibrium dialysis),human plasma [1]; [6],4.5%^b
c1ccc(-c2ccccc2)cc1 [Biphenyl],Literature % unbound (equilibrium dialysis),human plasma [1],1.6%^b
CNC(=O)Oc1cccc2ccccc12 [Carbaryl],reported Fub based on RED,human plasma [1]; 2012,70%
same,Literature % unbound (equilibrium dialysis),human plasma [1]; [6],69%^b
"COc1cc(N)c(Cl)cc1C(=O)NC1CCN(CCCOc2ccc(F)cc2)CC1OC (stereo not drawn) [Cisapride, reference compound]",unbound fraction (Fub) by RED,pooled human plasma [2],most highly bound
same,Literature % unbound (equilibrium dialysis),human plasma [1]; ref FDA package insert,2-3%^c
"CC(C)NCC(O)c1ccc(O)c(O)c1 (stereo not drawn) [Isoproterenol, reference compound]",unbound fraction (Fub) by RED,pooled human plasma [2],mostly free
same,Literature % unbound (equilibrium dialysis),"human plasma [1]; ref Kelly and McDevitt, 1978",35%^a
c1ccc2ccccc2c1 [Naphthalene],protein-free free fraction (equilibration percentage),[3],> 80%
same,reported Fub based on RED,human plasma [1]; 2012,~ 2%
CC1(C)C(C=C(Cl)Cl)C1C(=O)OCc1cccc(Oc2ccccc2)c1 (stereo not drawn) [Permethrin],reported Fub based on RED,human plasma [1]; 2012,0%
Cc1nc(N(C)C)nc(OC(=O)N(C)C)c1C [Pirimicarb],Literature % unbound (equilibrium dialysis),human plasma [1]; [6],16%^b
CC(C)NCC(O)COc1cccc2ccccc12 (stereo not drawn) [Propranolol],Literature % unbound (SPME),human plasma [4],25%^e
same,unbound fraction (Fub) by SPME,pooled human plasma [5],consistent with the reported value
c1cc2ccc3cccc4ccc(c1)c2c34 [Pyrene],Literature % unbound (equilibrium dialysis),human plasma [1]; [6],2.4%^b

# From article PMC6717004 (Toxicology in vitro : an international journal published in …, 2019)
